Results reported in US20260297092A1, “PYRAZOLOPYRIMIDINE DERIVATIVES AS INHIBITORS OF NLRP3” (Takeda Pharmaceutical Company Limited, priority 2023, published 2026).

Key:
[1] = test system: NLRP3 inflammasome (IL-1β production in THP-1 cells); test: IL-1β TR-FRET Assay (percentage of inhibition at 300 nM, 6 μM or 10 μM); format: cell-based, human; settings: Homo sapiens, THP-1, 300 nM, LPS priming, ATP activation, read-out: IL-1β inhibitory rate at 300 nM (%)
Outline: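 Percent inhibition of IL-1β used DMSO wells as 0% and 3 μM MCC-950 wells as full inhibition, with supernatant read by HTRF. Beforehand, IFN-γ-differentiated (25 ng/mL, 24 h), LPS-primed (50 ng/mL, 24 h) THP-1 cells received compound 30 min before inflammasome activation by 20 mM ATP for 2 h.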

[2] = test system: TNF-α (NF-κB pathway, THP-1 cells); test: TNF-α Assay (IC50); format: cell-based, human; settings: Homo sapiens, 600 ng/mL LPS, 3 hours
Outline: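 Supernatant TNF-α quantified by ELISA after 3 h stimulation with 600 ng/mL LPS at 37 °C, following 30 min compound preincubation. Cells: IFN-differentiated (25 ng/mL, 24 h) THP-1 macrophages, 40,000/well, serum-free. IC50 by sigmoidal fit of % inhibition, with TPCA-1 as 100% control.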

Row | IC50 [2] [µM] | SMILES | inhibition at 0.3 µM [1] [%]
1 | > 30 | COC(C)c1nc2nn(-c3c(C)cc(C)cc3O)cc2c(=O)[nH]1 (centres unmarked) [Example 52, 2-(2-hydroxy-4,6-dimethylphenyl)-6-(1-methoxyethyl)-2,5-dihydro-4H-pyrazolo[3,4-d]pyrimidin-4-one] | 95
2 | > 30 | COCc1nc2nn(-c3c(C)ccc(C)c3O)cc2c(=O)[nH]1 [Example 53, 2-(2-hydroxy-3,6-dimethylphenyl)-6-(methoxymethyl)-2,5-dihydro-4H-pyrazolo[3,4-d]pyrimidin-4-one] | 95
3 | > 30 | CCOc1nc2nn(-c3c(F)cc(C(F)(F)F)cc3Br)cc2c(=O)[nH]1 [Example 54, 2-[2-bromo-6-fluoro-4-(trifluoromethyl)phenyl]-6-ethoxy-2,5-dihydro-4H-pyrazolo[3,4-d]pyrimidin-4-one] | 100
4 | > 30 | Cc1cc(C)c(-n2cc3c(=O)[nH]c(OCC(F)(F)F)nc3n2)c(O)c1 [Example 55, 2-(2-hydroxy-4,6-dimethylphenyl)-6-(2,2,2-trifluoroethoxy)-2,5-dihydro-4H-pyrazolo[3,4-d]pyrimidin-4-one] | 98
5 | > 30 | CCOc1nc2nn(-c3ccc(C)cc3O)cc2c(=O)[nH]1 [Example 56, 6-ethoxy-2-(2-hydroxy-4-methylphenyl)-2,5-dihydro-4H-pyrazolo[3,4-d]pyrimidin-4-one] | 100
6 | > 30 | CCOc1nc2nn(-c3c(F)cc(C)cc3Br)cc2c(=O)[nH]1 [Example 57, 2-(2-bromo-6-fluoro-4-methylphenyl)-6-ethoxy-2,5-dihydro-4H-pyrazolo[3,4-d]pyrimidin-4-one] | 99
7 | > 30 | Cc1cc(C)c(-n2cc3c(=O)[nH]c(-c4cc(C)ncn4)nc3n2)c(O)c1 [Example 58, 2-(2-hydroxy-4,6-dimethylphenyl)-6-(6-methylpyrimidin-4-yl)-2,5-dihydro-4H-pyrazolo[3,4-d]pyrimidin-4-one] | 100
8 | > 30 | CCOc1nc2nn(-c3ccc(C(F)(F)F)cc3O)c(C)c2c(=O)[nH]1 [Example 59, 6-ethoxy-2-[2-hydroxy-4-(trifluoromethyl)phenyl]-3-methyl-2,5-dihydro-4H-pyrazolo[3,4-d]pyrimidin-4-one] | 98
9 | > 30 | CCOc1nc2nn(-c3ccc(Cl)cc3O)c(C)c2c(=O)[nH]1 [Example 60, 2-(4-chloro-2-hydroxyphenyl)-6-ethoxy-3-methyl-2,5-dihydro-4H-pyrazolo[3,4-d]pyrimidin-4-one] | 100
10 | > 30 | Cc1cc(C)c(-n2cc3c(=O)[nH]c(-c4cnccn4)nc3n2)c(O)c1 [Example 61, 2-(2-hydroxy-4,6-dimethylphenyl)-6-(pyrazin-2-yl)-2,5-dihydro-4H-pyrazolo[3,4-d]pyrimidin-4-one] | 100
11 | > 30 | Cc1cc(C)c(-n2cc3c(=O)[nH]c(CN4CCOCC4)nc3n2)c(O)c1 [Example 62, 2-(2-hydroxy-4,6-dimethylphenyl)-6-[(morpholin-4-yl)methyl]-2,5-dihydro-4H-pyrazolo[3,4-d]pyrimidin-4-one] | 95
12 | > 30 | CCOc1nc2nn(-c3c(F)cc(C)cc3C(F)F)cc2c(=O)[nH]1 [Example 63, 2-[2-(difluoromethyl)-6-fluoro-4-methylphenyl]-6-ethoxy-2,5-dihydro-4H-pyrazolo[3,4-d]pyrimidin-4-one] | 100
13 | > 30 | CCOc1nc2nn(-c3c(C)cc(C(F)(F)F)cc3F)cc2c(=O)[nH]1 [Example 64, 6-ethoxy-2-[2-fluoro-6-methyl-4-(trifluoromethyl)phenyl]-2,5-dihydro-4H-pyrazolo[3,4-d]pyrimidin-4-one] | 100
14 | > 30 | CCOc1nc2nn(-c3c(C)cc(Cl)cc3F)cc2c(=O)[nH]1 [Example 65, 2-(4-chloro-2-fluoro-6-methylphenyl)-6-ethoxy-2,5-dihydro-4H-pyrazolo[3,4-d]pyrimidin-4-one] | 96
15 | > 30 | Cc1cc(C)c(-n2cc3c(=O)[nH]c(-c4cccn(C)c4=O)nc3n2)c(O)c1 [Example 66, 2-(2-hydroxy-4,6-dimethylphenyl)-6-(1-methyl-2-oxo-1,2-dihydropyridin-3-yl)-2,5-dihydro-4H-pyrazolo[3,4-d]pyrimidin-4-one] | 97
16 | > 30 | Cc1cc(C)c(-n2cc3c(=O)[nH]c(CC4CCCCO4)nc3n2)c(O)c1 (centres unmarked) [Example 67, 2-(2-hydroxy-4,6-dimethylphenyl)-6-[(oxan-2-yl)methyl]-2,5-dihydro-4H-pyrazolo[3,4-d]pyrimidin-4-one] | 98
17 | 0.279 | Cc1cc(C)c(-n2cc3c(=O)[nH]c(CC(C)(C)C)nc3n2)c(O)c1 [Example 68, 6-(2,2-dimethylpropyl)-2-(2-hydroxy-4,6-dimethylphenyl)-2,5-dihydro-4H-pyrazolo[3,4-d]pyrimidin-4-one] | 97
18 | > 30 | CCOc1nc2nn(-c3ccc(C(F)(F)F)cc3C)cc2c(=O)[nH]1 [Example 69, 6-ethoxy-2-[2-methyl-4-(trifluoromethyl)phenyl]-2,5-dihydro-4H-pyrazolo[3,4-d]pyrimidin-4-one] | 100
19 | > 30 | CCOc1nc2nn(-c3c(C)cc(C)cc3Cl)cc2c(=O)[nH]1 [Example 70, 2-(2-chloro-4,6-dimethylphenyl)-6-ethoxy-2,5-dihydro-4H-pyrazolo[3,4-d]pyrimidin-4-one] | 100
20 | 1.69 | Cc1cc(C)c(-n2cc3c(=O)[nH]c(C(C)(C)C)nc3n2)c(O)c1 [Example 71, 6-tert-butyl-2-(2-hydroxy-4,6-dimethylphenyl)-2,5-dihydro-4H-pyrazolo[3,4-d]pyrimidin-4-one] | 96
21 | > 30 | CCOc1nc2nn(-c3c(C)ccc(CC)c3O)cc2c(=O)[nH]1 [Example 72, 6-ethoxy-2-(3-ethyl-2-hydroxy-6-methylphenyl)-2,5-dihydro-4H-pyrazolo[3,4-d]pyrimidin-4-one] | 94
22 | > 30 | CCOc1nc2nn(-c3c(F)cc(C)cc3C(F)(F)F)cc2c(=O)[nH]1 [Example 73, 6-ethoxy-2-[2-fluoro-4-methyl-6-(trifluoromethyl)phenyl]-2,5-dihydro-4H-pyrazolo[3,4-d]pyrimidin-4-one] | 97
23 | > 30 | Cc1cc(C)c(-n2cc3c(=O)[nH]c(C)nc3n2)c(O)c1 [Example 74, 2-(2-hydroxy-4,6-dimethylphenyl)-6-methyl-2,5-dihydro-4H-pyrazolo[3,4-d]pyrimidin-4-one] | 99
24 | > 30 | Cc1cc(C)c(-n2cc3c(=O)[nH]c(Cn4cccn4)nc3n2)c(O)c1 [Example 75, 2-(2-hydroxy-4,6-dimethylphenyl)-6-[(1H-pyrazol-1-yl)methyl]-2,5-dihydro-4H-pyrazolo[3,4-d]pyrimidin-4-one] | 98
25 | > 30 | CCOc1nc2nn(-c3c(F)cc(C)cc3CC)cc2c(=O)[nH]1 [Example 76, 6-ethoxy-2-(2-ethyl-6-fluoro-4-methylphenyl)-2,5-dihydro-4H-pyrazolo[3,4-d]pyrimidin-4-one] | 94
